Test results as given in patent publication US20260022142A1, “MACROCYCLIC IMMUNOMODULATORS” (Bristol-Myers Squibb Company, priority 2022, published 2026).
Bridge positions count the residues as written; N and C are the ends. Square brackets hold non-standard residues; d marks the D form. Peptide text beside a SMILES is read from it. * marks the point of attachment. ξ: configuration not given here. Phe(4-CF3) = N[C@@H](Cc1ccc(C(F)(F)F)cc1)C(=O)O; Phe(4-COOH) = N[C@@H](Cc1ccc(C(=O)O)cc1)C(=O)O; Bip = N[C@@H](Cc1ccc(-c2ccccc2)cc1)C(=O)O; Phe(3-Me) = Cc1cccc(C[C@H](N)C(=O)O)c1; NH(CH2)12COOH = O=C(O)CCCCCCCCCCCCN*; Val(3-OH) = CC(C)(O)[C@H](N)C(=O)O; Cha = N[C@@H](CC1CCCCC1)C(=O)O; Thr(3ξ) = CC(O)[C@H](N)C(=O)O; Carboxymethyl = O=C(O)C*; Nle = CCCC[C@H](N)C(=O)O; Orn = NCCC[C@H](N)C(=O)O; Aun = NCCCCCCCCCCC(=O)O; Dab = NCC[C@H](N)C(=O)O; Nva = CCC[C@H](N)C(=O)O; Abu = CC[C@H](N)C(=O)O; AEEA = NCCOCCOCC(=O)O

Target: T1, PD-1/PD-L1 interaction (PE-labeled human PD-L1-Ig binding to Jurkat cell line over-expressing human PD-1) (Homo sapiens, UniProt Q15116)
T1 construct: expressed in transfected cells; host or cells: Jurkat
T1 sequence (Q15116 25-288): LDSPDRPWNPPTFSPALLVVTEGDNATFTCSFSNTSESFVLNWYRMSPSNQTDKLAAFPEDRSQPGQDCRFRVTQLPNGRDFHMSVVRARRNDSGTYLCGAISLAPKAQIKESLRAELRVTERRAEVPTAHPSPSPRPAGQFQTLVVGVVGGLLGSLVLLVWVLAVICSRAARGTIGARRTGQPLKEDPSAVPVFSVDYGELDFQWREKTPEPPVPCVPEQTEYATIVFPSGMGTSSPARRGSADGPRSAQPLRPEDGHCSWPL
Assay: Jurkat-PD-1 Cell Binding High-Content Screening Assay (CBA)
Type: cell-based
Settings: Jurkat cell line over-expressing human PD-1; PE-labeled PD-L1-Ig 20 nM final; read-out: Jurkat hPD1-PDL1 IC50
Summary of the method: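 Read-out is high-content imaging of cell-bound phycoerythrin-tagged PD-L1-Ig on fixed, Hoechst-counterstained Jurkat cells that over-express human PD-1. Compound exposure lasts 2 h at 37° C before the labeled ligand (20 nM final) is added for a further hour.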

IC50 [nM]	Structure (SMILES)
0.2	CCC[C@@H]1NC(=O)CSC[C@@H](C(=O)N[C@@H](CCN)C(=O)NCCOCCOCC(=O)NCCCCCCCCCCC(=O)O)NC(=O)[C@H](CC(=O)O)NC(=O)[C@H](C(C)C)NC(=O)[C@H](CC2CCCCC2)NC(=O)[C@H](CCN)NC(=O)[C@@H](CC(C)C)NC(=O)[C@H](CCCN)NC(=O)[C@H](Cc2ccc(OCC(=O)O)cc2)NC(=O)[C@H](Cc2ccc(-c3ccccc3)cc2)NC(=O)[C@H](Cc2ccc(OCC(=O)O)cc2)NC(=O)[C@H](Cc2cccc(C)c2)NC(=O)[C@H](CC(=O)O)NC(=O)[C@H](Cc2ccc(OCC(=O)O)cc2)NC1=O [Compound 3804] ({CH2CO}-[Nva]Y(Carboxymethyl)D[Phe(3-Me)]Y(Carboxymethyl)[Bip]Y(Carboxymethyl)[Orn][dL][Dab][Cha]VDC[Dab][AEEA][Aun]-OH; thioether N-14)
1.2	Cc1cccc(C[C@@H]2NC(=O)[C@H](CC(=O)O)NC(=O)[C@H](Cc3ccc(OCC(=O)O)cc3)NC(=O)[C@H](CCN)NC(=O)CSC[C@@H](C(=O)N[C@@H](CCN)C(=O)NCCOCCOCC(=O)NCCCCCCCCCCC(=O)O)NC(=O)[C@H](Cc3cnc[nH]3)NC(=O)[C@H](C(C)O)NC(=O)[C@H](CC3CCCCC3)NC(=O)[C@H](CCN)NC(=O)[C@@H](CC(C)C)NC(=O)[C@H](CCCN)NC(=O)[C@H](Cc3ccc(OCC(=O)O)cc3)NC(=O)[C@H](Cc3ccc(-c4ccccc4)cc3)NC(=O)[C@H](Cc3ccc(OCC(=O)O)cc3)NC2=O)c1 (stereo partly drawn) [Compound 3805] ({CH2CO}-[Dab]Y(Carboxymethyl)D[Phe(3-Me)]Y(Carboxymethyl)[Bip]Y(Carboxymethyl)[Orn][dL][Dab][Cha][Thr(3ξ)]HC[Dab][AEEA][Aun]-OH; thioether N-14)
5.2	Cc1cccc(C[C@@H]2NC(=O)[C@H](CC(=O)O)NC(=O)[C@H](Cc3ccc(OCC(=O)O)cc3)NC(=O)[C@H](C(C)O)NC(=O)CSC[C@@H](C(=O)N[C@@H](CCN)C(=O)NCCOCCOCC(=O)NCCCCCCCCCCC(=O)O)NC(=O)[C@H](CCC(=O)O)NC(=O)[C@H](C(C)C)NC(=O)[C@H](CC3CCCCC3)NC(=O)[C@H](CCN)NC(=O)[C@@H](CC(C)C)NC(=O)[C@H](CCCN)NC(=O)[C@H](Cc3ccc(OCC(=O)O)cc3)NC(=O)[C@H](Cc3ccc(-c4ccccc4)cc3)NC(=O)[C@H](Cc3ccc(OCC(=O)O)cc3)NC2=O)c1 (stereo partly drawn) [Compound 3806] ({CH2CO}-[Thr(3ξ)]Y(Carboxymethyl)D[Phe(3-Me)]Y(Carboxymethyl)[Bip]Y(Carboxymethyl)[Orn][dL][Dab][Cha]VEC[Dab][AEEA][Aun]-OH; thioether N-14)
20.4	CCC[C@@H]1NC(=O)CSC[C@@H](C(=O)N[C@@H](CCN)C(=O)NCCOCCOCC(=O)NCCCCCCCCCCC(=O)O)NC(=O)[C@H](CCC(=O)O)NC(=O)[C@H](CO)NC(=O)[C@H](CC2CCCCC2)NC(=O)[C@H](CCN)NC(=O)[C@@H](CC(C)C)NC(=O)[C@H](CCCN)NC(=O)[C@H](Cc2ccc(OCC(=O)O)cc2)NC(=O)[C@H](Cc2ccc(-c3ccccc3)cc2)NC(=O)[C@H](Cc2ccc(OCC(=O)O)cc2)NC(=O)[C@H](Cc2cccc(C)c2)NC(=O)[C@H](CC(=O)O)NC(=O)[C@H](Cc2ccc(OCC(=O)O)cc2)NC1=O [Compound 3807] ({CH2CO}-[Nva]Y(Carboxymethyl)D[Phe(3-Me)]Y(Carboxymethyl)[Bip]Y(Carboxymethyl)[Orn][dL][Dab][Cha]SEC[Dab][AEEA][Aun]-OH; thioether N-14)
15.4	CCCC[C@@H]1NC(=O)CSC[C@@H](C(=O)N[C@@H](CCN)C(=O)NCCOCCOCC(=O)NCCOCCOCC(=O)NCCCCCCCCCCCCC(=O)O)NC(=O)[C@H](CCC(=O)O)NC(=O)[C@H](C(C)C)NC(=O)[C@H](CC2CCCCC2)NC(=O)[C@H](CCN)NC(=O)[C@@H](CC(C)C)NC(=O)[C@H](CCCN)NC(=O)[C@H](Cc2ccc(C(=O)O)cc2)NC(=O)[C@H](Cc2ccc(-c3ccccc3)cc2)NC(=O)[C@H](Cc2ccc(C(=O)O)cc2)NC(=O)[C@H](Cc2cccc(C)c2)NC(=O)[C@H](CC(=O)O)NC(=O)[C@H](Cc2ccc(OCC(=O)O)cc2)NC1=O [Compound 3809] ({CH2CO}-[Nle]Y(Carboxymethyl)D[Phe(3-Me)][Phe(4-COOH)][Bip][Phe(4-COOH)][Orn][dL][Dab][Cha]VEC[Dab][AEEA][AEEA]-{NH(CH2)12COOH}; thioether N-14)
19.8	Cc1cccc(C[C@@H]2NC(=O)[C@H](CC(=O)O)NC(=O)[C@H](Cc3ccc(OCC(=O)O)cc3)NC(=O)[C@H](C(C)O)NC(=O)CSC[C@@H](C(=O)N[C@@H](CCN)C(=O)NCCCCCCCCCCCCC(=O)O)NC(=O)[C@H](CO)NC(=O)[C@H](C(C)(C)O)NC(=O)[C@H](CC3CCCCC3)NC(=O)[C@H](CCN)NC(=O)[C@@H](CC(C)C)NC(=O)[C@H](CCCN)NC(=O)[C@H](Cc3ccc(OCC(=O)O)cc3)NC(=O)[C@H](Cc3ccc(-c4ccccc4)cc3)NC(=O)[C@H](Cc3ccc(C(F)(F)F)cc3)NC2=O)c1 (stereo partly drawn) [Compound 3810] ({CH2CO}-[Thr(3ξ)]Y(Carboxymethyl)D[Phe(3-Me)][Phe(4-CF3)][Bip]Y(Carboxymethyl)[Orn][dL][Dab][Cha][Val(3-OH)]SC[Dab]-{NH(CH2)12COOH}; thioether N-14)
3.9	CC[C@@H]1NC(=O)CSC[C@@H](C(=O)N[C@@H](CCN)C(=O)NCCOCCOCC(=O)N[C@@H](CCC(=O)O)C(=O)NCCCCCCCCCCCCC(=O)O)NC(=O)[C@H](CO)NC(=O)[C@H](C(C)(C)O)NC(=O)[C@H](CC2CCCCC2)NC(=O)[C@H](CCN)NC(=O)[C@@H](CC(C)C)NC(=O)[C@H](CCCN)NC(=O)[C@H](Cc2ccc(OCC(=O)O)cc2)NC(=O)[C@H](Cc2ccc(-c3ccccc3)cc2)NC(=O)[C@H](Cc2ccc(OCC(=O)O)cc2)NC(=O)[C@H](Cc2cccc(C)c2)NC(=O)[C@H](CC(=O)O)NC(=O)[C@H](Cc2ccc(OCC(=O)O)cc2)NC1=O [Compound 3811] ({CH2CO}-[Abu]Y(Carboxymethyl)D[Phe(3-Me)]Y(Carboxymethyl)[Bip]Y(Carboxymethyl)[Orn][dL][Dab][Cha][Val(3-OH)]SC[Dab][AEEA]E-{NH(CH2)12COOH}; thioether N-14)
13.3	CCCC[C@@H]1NC(=O)CSC[C@@H](C(=O)N[C@@H](CCN)C(=O)NCCOCCOCC(=O)NCCOCCOCC(=O)NCCCCCCCCCCCCC(=O)O)NC(=O)[C@H](CO)NC(=O)[C@H](C(C)(C)O)NC(=O)[C@H](CC2CCCCC2)NC(=O)[C@H](CCN)NC(=O)[C@@H](CC(C)C)NC(=O)[C@H](CCCN)NC(=O)[C@H](Cc2ccc(OCC(=O)O)cc2)NC(=O)[C@H](Cc2ccc(-c3ccccc3)cc2)NC(=O)[C@H](Cc2ccc(OCC(=O)O)cc2)NC(=O)[C@H](Cc2cccc(C)c2)NC(=O)[C@H](CC(=O)O)NC(=O)[C@H](Cc2ccc(OCC(=O)O)cc2)NC1=O [Compound 3812] ({CH2CO}-[Nle]Y(Carboxymethyl)D[Phe(3-Me)]Y(Carboxymethyl)[Bip]Y(Carboxymethyl)[Orn][dL][Dab][Cha][Val(3-OH)]SC[Dab][AEEA][AEEA]-{NH(CH2)12COOH}; thioether N-14)
